# Laboratory results reported in US20040219202A1, “Pharmaceutical composition comprising lipids comprising a polar and a nonpolar moiety” (priority 2001, published 2004).
# pKd: −log10 of the molar value.
# Assays:
# [1] = system: hepatic glutathione S-transferases; settings: cited from earlier work
# Fe(III)-LOX = settings: cited from earlier work
# cyclo-oxygenase = settings: cited from earlier work
# 5-lipoxygenase = molecular target: T1, 5-lipoxygenase (Homo sapiens, UniProt P09917); settings: cited from earlier work
# T1 sequence (P09917 1-674): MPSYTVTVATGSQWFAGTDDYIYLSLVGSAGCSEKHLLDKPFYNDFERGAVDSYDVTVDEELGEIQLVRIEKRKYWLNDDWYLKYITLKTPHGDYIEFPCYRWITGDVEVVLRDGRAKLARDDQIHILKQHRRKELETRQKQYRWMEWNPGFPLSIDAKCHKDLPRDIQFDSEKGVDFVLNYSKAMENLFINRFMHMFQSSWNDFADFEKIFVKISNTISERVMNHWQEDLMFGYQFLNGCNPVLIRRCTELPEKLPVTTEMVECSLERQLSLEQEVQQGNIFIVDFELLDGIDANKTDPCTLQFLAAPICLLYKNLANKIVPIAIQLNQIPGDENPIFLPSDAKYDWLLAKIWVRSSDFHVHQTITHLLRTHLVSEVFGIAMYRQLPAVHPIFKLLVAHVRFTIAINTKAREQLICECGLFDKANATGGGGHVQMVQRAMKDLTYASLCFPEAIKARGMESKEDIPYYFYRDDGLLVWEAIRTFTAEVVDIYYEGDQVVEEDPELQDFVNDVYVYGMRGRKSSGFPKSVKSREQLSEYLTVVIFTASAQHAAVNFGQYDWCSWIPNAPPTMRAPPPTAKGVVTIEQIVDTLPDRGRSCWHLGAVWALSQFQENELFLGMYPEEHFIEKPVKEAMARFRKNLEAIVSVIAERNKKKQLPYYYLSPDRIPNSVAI
# [2] = Net charge of cationic lipid; assay type: physicochemical; settings: pH 7.4
# Text: The monoacetylenic analogues of DOPC, DOPE, DODAP and DOTAP were synthesised as described above. Standard lipids for comparisons (DOPC, DOPE and DOTAP (chloride salt)) were purchased from Sigma-Aldrich, Poole, Dorset, UK. Our invention the cationic, cholesterol-based lipid N^1-cholesteryloxycarbonyl-3,7-diazanononane-1,9-diamine (CDAN)—net charge=+1.6 at pH 7.4.CDAN (below) was synthesised by our group previously,^22 and is now available in a 1:1 molar ratio formulation with DOPE as Trojene™ (Avanti Polar Lipids, Inc., Alabaster, Ala., USA). [drawing 40]
# C. tomentosicollis eggs = settings: cited from earlier work
# cytochrome P4504A1 = molecular target: T2, cytochrome P4504A1 (Rattus norvegicus, UniProt P08516); settings: cited from earlier work
# T2 sequence (P08516 1-509): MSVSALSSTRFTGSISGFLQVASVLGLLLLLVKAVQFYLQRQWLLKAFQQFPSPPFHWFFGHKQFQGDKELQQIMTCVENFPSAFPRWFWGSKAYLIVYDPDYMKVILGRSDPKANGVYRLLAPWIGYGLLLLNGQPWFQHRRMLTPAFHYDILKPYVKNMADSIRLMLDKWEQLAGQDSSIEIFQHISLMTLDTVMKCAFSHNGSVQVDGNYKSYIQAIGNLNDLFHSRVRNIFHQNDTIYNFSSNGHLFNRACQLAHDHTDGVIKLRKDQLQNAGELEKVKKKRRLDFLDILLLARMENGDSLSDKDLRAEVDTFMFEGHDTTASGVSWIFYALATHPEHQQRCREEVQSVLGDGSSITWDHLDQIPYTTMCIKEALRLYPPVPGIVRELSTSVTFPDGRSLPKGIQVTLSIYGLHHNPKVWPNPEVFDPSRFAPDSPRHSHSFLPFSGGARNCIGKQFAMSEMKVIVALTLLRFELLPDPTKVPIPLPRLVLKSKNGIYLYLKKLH
# [3] = system: ethanolamine-specific phospholipid base exchange reaction; settings: rat liver microsomes; cited from earlier work
# [4] = molecular target: T3, Cytochrome P4504A4 (CYP4A4) (Oryctolagus cuniculus, UniProt P10611); settings: cited from earlier work
# T3 sequence (P10611 5-510): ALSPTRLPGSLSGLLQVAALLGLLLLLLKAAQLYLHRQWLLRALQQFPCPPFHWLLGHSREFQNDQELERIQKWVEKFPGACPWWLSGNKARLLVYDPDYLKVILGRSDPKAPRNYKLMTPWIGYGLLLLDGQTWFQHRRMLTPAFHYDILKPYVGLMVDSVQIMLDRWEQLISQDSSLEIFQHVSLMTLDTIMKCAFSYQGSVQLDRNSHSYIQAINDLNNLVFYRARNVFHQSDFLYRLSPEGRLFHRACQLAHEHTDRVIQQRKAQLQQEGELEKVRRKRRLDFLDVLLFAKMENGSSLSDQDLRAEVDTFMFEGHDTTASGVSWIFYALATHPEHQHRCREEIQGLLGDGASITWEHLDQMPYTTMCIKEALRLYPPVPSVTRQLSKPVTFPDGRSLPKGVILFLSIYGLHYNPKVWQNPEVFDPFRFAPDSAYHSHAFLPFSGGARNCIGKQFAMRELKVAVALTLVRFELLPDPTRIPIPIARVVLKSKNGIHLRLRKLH
# DNA polymerase α = molecular target: T4, DNA polymerase α (Homo sapiens, UniProt P09884); settings: cited from earlier work
# T4 sequence (P09884 1-1462): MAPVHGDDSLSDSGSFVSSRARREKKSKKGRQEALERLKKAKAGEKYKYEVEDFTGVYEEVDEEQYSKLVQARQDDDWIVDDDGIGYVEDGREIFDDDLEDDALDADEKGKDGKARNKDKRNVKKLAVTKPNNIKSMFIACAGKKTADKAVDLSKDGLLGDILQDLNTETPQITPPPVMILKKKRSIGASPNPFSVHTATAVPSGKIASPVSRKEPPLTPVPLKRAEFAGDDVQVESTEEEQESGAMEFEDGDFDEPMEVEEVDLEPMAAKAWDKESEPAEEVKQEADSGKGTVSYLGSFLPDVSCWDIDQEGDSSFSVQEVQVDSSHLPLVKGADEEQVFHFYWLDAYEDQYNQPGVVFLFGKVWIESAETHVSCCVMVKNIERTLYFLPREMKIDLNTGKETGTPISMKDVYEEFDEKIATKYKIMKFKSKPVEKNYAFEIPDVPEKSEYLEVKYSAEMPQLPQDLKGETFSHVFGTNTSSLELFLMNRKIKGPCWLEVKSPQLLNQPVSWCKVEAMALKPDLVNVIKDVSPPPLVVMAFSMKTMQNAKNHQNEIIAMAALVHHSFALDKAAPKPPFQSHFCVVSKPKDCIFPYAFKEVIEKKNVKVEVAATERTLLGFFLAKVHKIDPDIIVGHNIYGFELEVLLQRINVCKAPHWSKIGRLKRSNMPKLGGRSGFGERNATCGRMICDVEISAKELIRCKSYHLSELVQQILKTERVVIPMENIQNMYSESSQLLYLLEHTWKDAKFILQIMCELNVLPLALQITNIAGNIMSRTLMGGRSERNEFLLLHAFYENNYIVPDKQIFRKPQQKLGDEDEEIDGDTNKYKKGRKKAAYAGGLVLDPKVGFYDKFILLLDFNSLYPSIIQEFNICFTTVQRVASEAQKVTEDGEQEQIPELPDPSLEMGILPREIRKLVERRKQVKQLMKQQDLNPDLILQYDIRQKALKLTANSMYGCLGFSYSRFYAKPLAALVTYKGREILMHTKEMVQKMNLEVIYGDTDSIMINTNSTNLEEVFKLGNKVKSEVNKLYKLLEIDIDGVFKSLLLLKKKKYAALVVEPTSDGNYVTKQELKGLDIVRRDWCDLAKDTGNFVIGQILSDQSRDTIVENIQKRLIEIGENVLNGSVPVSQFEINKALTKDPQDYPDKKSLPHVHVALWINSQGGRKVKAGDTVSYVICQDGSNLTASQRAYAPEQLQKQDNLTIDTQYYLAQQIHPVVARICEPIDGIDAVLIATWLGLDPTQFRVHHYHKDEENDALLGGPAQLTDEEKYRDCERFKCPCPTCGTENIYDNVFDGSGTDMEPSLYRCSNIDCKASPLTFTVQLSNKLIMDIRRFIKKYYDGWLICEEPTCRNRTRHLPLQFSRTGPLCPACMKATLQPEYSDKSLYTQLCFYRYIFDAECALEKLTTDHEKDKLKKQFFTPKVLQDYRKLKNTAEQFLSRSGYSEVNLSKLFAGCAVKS
# DNA = settings: read-out: apparent DNA dissociation constant; cited from earlier work
# DNA topoisomerase I = molecular target: T5, DNA topoisomerase I (Homo sapiens, UniProt P11387); settings: cited from earlier work
# T5 sequence (P11387 1-765): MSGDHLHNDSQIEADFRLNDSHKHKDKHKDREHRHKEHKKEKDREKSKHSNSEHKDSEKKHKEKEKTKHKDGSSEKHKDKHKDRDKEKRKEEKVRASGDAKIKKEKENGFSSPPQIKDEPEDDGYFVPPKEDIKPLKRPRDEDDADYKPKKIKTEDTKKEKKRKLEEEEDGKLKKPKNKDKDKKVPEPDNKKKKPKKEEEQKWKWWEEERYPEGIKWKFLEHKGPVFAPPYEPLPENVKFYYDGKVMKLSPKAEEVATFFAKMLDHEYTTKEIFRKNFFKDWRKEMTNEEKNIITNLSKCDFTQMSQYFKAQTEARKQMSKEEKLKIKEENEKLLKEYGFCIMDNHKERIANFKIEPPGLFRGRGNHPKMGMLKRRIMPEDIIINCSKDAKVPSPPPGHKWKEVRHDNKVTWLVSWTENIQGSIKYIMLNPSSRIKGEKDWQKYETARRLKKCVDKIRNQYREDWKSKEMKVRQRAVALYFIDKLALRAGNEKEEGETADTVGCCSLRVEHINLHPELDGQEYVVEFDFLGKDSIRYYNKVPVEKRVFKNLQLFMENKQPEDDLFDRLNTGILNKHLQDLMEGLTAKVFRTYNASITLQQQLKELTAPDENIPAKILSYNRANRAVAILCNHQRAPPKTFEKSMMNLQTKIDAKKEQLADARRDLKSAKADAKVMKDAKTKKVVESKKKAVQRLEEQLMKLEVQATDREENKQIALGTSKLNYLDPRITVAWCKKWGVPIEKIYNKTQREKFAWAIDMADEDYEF
smiles,measurement,setting,value
"CCCCCCCCC#CCC#CCC#CCCCC(=O)O [eicosa-5,8,11-triynoic acid]",Inhibition of mammalian hepatic glutathione S-transferases,[1],inhibits
"CCCCCC#CCC#CCCCCCCCC(=O)O [octadeca-9,12-diynoic acid]",Inactivation of Fe(III)-LOX,Fe(III)-LOX,irreversibly inactivates
"CCCCCC#CC#CC#CCCCCCCC(=O)O [octadeca-8,10,12-triynoic acid]",Inhibition of cyclo-oxygenase,cyclo-oxygenase,potent inhibitors
same,Inhibition of 5-lipoxygenase,5-lipoxygenase,weak inhibitors
"CC(C)CCC[C@@H](C)[C@H]1CC[C@H]2[C@@H]3CC=C4C[C@@H](OC(=O)NCCNCCCNCCN)CC[C@]4(C)[C@H]3CC[C@]12C [CDAN, N^1-cholesteryloxycarbonyl-3,7-diazanononane-1,9-diamine]",net charge,[2],+1.6
CCCCCCCCCCCCC#CCCCC(=O)O [Octadeca-5-ynoic acid],Hatching of C. tomentosicollis eggs,C. tomentosicollis eggs,inhibits the hatching
C#CCCCCCCCCC(=O)O [Undeca-10-ynoic acid],Inhibition of cytochrome P4504A1,cytochrome P4504A1,inhibitor
same,Ethanolamine-specific phospholipid base exchange reaction,[3],inhibits
C#CCCCCCCCCCCCCCCCC(=O)O [Octadeca-17-ynoic acid],Inhibition of the substrate-binding pocket of CYP4A4,[4],effective inhibitor
"CCCCCCCCC#CCCCCCCCC(=O)O [Octadeca-9-ynoic acid, octadeca-9-ynoic acid]",Inhibition of DNA polymerase α,DNA polymerase α,weakly inhibitory
same,pKd,DNA,2.74
same,DNA topoisomerase I-mediated relaxation of a supercoiled plasmid DNA,DNA topoisomerase I,does not inhibit
same,topisomerase I-mediated DNA filter binding,DNA topoisomerase I,inhibits
